Experiments:
Test in all cases: relative viability (nuclei count vs DMSO), 5 days (fraction); higher = more cells survive
TPCA-1 + Phenformin = compound: C1=CC(=CC=C1C2=CC(=C(S2)NC(=O)N)C(=O)N)F [TPCA-1] + N=C(N)NC(=N)NCCc1ccccc1 [Phenformin] (partner 250 µM)
How it was run: (§1)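 Medians of duplicate plates are given as relative viability. That measure is the nuclei count in treated wells divided by the count in vehicle wells. Counts were taken on 4× images of lung cancer cell lines in 1536-well plates, 5 days after pin-tool dosing the day after seeding with one drug alone or a fixed anchor-drug dose plus five library-drug doses (not always all listed) in √10 steps.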

[1] = compound: C[C@]12O[C@H](C[C@]1(O)CO)n1c3ccccc3c3c4c(c5c6ccccc6n2c5c31)CNC4=O [Lestaurtinib] + CC(=O)Nc1cccc(-n2c(=O)n(C3CC3)c(=O)c3c(Nc4ccc(I)cc4F)n(C)c(=O)c(C)c32)c1 [Trametinib] (partner 0.02 µM)
How it was run: as §1

TPCA-1 + Decitabine = compound: C1=CC(=CC=C1C2=CC(=C(S2)NC(=O)N)C(=O)N)F [TPCA-1] + Nc1ncn([C@H]2C[C@H](O)[C@@H](CO)O2)c(=O)n1 [Decitabine] (partner 2 µM)
How it was run: as §1

[2] = compound: C1/C(=C\C2=CC=CS2)/C(=O)/C(=C/C3=CC=CS3)/C1 + CCNC(=O)c1noc(-c2cc(C(C)C)c(O)cc2O)c1-c1ccc(CN2CCOCC2)cc1 [Luminespib] (partner 0.01 µM)
How it was run: as §1

## UMC-11
TPCA-1 + Phenformin; first compound 0.04 µM
  relative viability: 0.373
TPCA-1 + Phenformin; first compound 0.1265 µM
  relative viability: 0.299
TPCA-1 + Phenformin; first compound 0.4 µM
  relative viability: 0.36
TPCA-1 + Phenformin; first compound 1.265 µM
  relative viability: 0.307
TPCA-1 + Phenformin; first compound 4 µM
  relative viability: 0.171
[1]; first compound 0.005 µM
  relative viability: 0.746
[1]; first compound 0.01581 µM
  relative viability: 0.6
[1]; first compound 0.05 µM
  relative viability: 0.601
[1]; first compound 0.1581 µM
  relative viability: 0.311
[1]; first compound 0.5 µM
  relative viability: 0.155
TPCA-1 + Decitabine; first compound 0.04 µM
  relative viability: 0.584
TPCA-1 + Decitabine; first compound 0.1265 µM
  relative viability: 0.501
TPCA-1 + Decitabine; first compound 0.4 µM
  relative viability: 0.792
TPCA-1 + Decitabine; first compound 1.265 µM
  relative viability: 0.613
TPCA-1 + Decitabine; first compound 4 µM
  relative viability: 0.439
[2]; first compound 0.2 µM
  relative viability: 1.02
[2]; first compound 0.6325 µM
  relative viability: 0.978
[2]; first compound 20 µM
  relative viability: 1.05

— the supplement of paper PMC10307832
